Assay results reported in PubChem BioAssay AID1918946 (Molecular Pharmacology Branch, DTP, NCI, 2023).

Test system: 885512-296-R-J2-PDC complex spheroid viability
Test: Anticancer human tumor 885512-296-R-J2-PDC patient-derived breast carcinoma cell line growth inhibition
Settings: for IC50: curve of first compound; for viability, T/C: stronger effect = lower value
Description: Multicellular complex tumor spheroid response to LSD1 Inhibitor Iadademstat in combination with a variety of drugs and investigational agents in selected tumor cell lines
The current study was undertaken to assess response to LSD1 inhibitors in combination with standard-of-care drugs and investigational agents in solid tumor complex spheroid models as well as in the K-562 leukemia. Complex spheroids include a stromal component modeled by human endothelial cells (HUVEC) and fibroblasts modeled by human mesenchymal stem cells (MSCs). The concentration ranges selected for each drug and investigational agent were based upon clinically achievable concentrations if the clinical Cmax of the agent was known.
Compounds. The drugs and investigational agents used in this study are listed on Table 1. All of the agents used, including staurosporine (NSC755774) and gemcitabine (NSC613327), were obtained from the Developmental Therapeutics Program, NCI. FDA-approved anticancer drugs are available from the NCI at http://dtp.nci.nih.gov/branches/dscb/oncology_drugset_explanation.html. Drugs and investigational agents were >95% pure by proton nuclear magnetic resonance (NMR) and liquid chromatography/mass spectrometry (LC/MS). Stock solutions were prepared at 400x in DMSO, stored at -70 degrees C, and diluted in fresh medium prior to their use. The final concentration of DMSO in cell culture wells never exceeded 0.25% (v/v). The FDA-approved anticancer drug set is available from the Developmental Therapeutics Program at https://dtp.cancer.gov/organization/dscb/obtaining/available_plates.htm. All drugs and investigational agents were tested over a range starting from a high concentration at or near the clinical Cmax and decreasing in half-log increments. If the clinical Cmax for an agent had not been determined, the highest concentration tested was 10 microM.
Cell Lines. The patient-derived cancer cell (PDC) lines: 292921-168-R-J2-PDC, K24384-001-R-PDC, and 521955-158-R2-J5-PDC pancreatic carcinomas, 556581-035-R-J1 ovarian carcinoma, 324938-238-R-J1-PDC, 855422-203-R-J1-PDC and 883617-216-R-J1-PDC urothelial bladder carcinomas, 743489-274-T-PDC renal cell carcinoma, 138582-R-J1 Merkel cell tumor, K60290-347-R-J1 and K57222-313-R-J1-PDC glioblastomas, 653999-131-R-J2-PDC, LG0703-F948-PDC, and 349418-098-R-PDC non-small cell lung carcinomas, 885512-296-R-J2-PDC, 171881-019-R-J1-PDC breast carcinomas and 186277-243-T-J2-PDC and 233499-124-R-J2-PDC colon carcinomas were obtained from the NCI Patient-Derived Models Repository (PDMR, https://pdmr.cancer.gov). The established cell lines NCI/ADR-RES (RRID:CVCL_14520 and OVCAR-5 (RRID:CVCL_1628) ovarian carcinomas, 786-O (RRID:CVCL_1051) and A498 (RRID:CVCL_A498) renal cell carcinoma, NCI-H211 (ATCC, cat. CRL-5824; RRID:CVCL_1529), NCI-H196 (ATCC, cat. CRL-5823, RRID:CVCL_1509), SW 1271 (ATCC, cat. CRL-2177, RRID:CVCL_1716) and NCI-H1876 (ATCC, cat. CRL-5902, RRID:CVCL_1503) small cell lung carcinomas, MDA-MB-231 (RRID:CVCL_0062) and MDA-MB-468 (RRID:CVCL_0419)breast carcinomas (10-12). Pooled donor human umbilical vein endothelial cells (HUVEC, Lonza, cat. CC-2519) and human mesenchymal stem cells (hMSC, Lonza, cat. PT-2501) were purchased from Lonza (Walkersville, MD).
Cell Culture. All cells were maintained in an incubator at 37 degrees C and 5% CO2 with 95% humidity. The PDC lines were cultured according to standard operating procedures established by the NCI PDMR (https://pdmr.cancer.gov). Briefly all PDCs were thawed and cultured in Matrigel-coated flasks prepared with a working solution of 1X Ham's F-12 nutrient mix, without supplementation (Invitrogen, Waltham, MA, cat. 11765054), 100 U/mL penicillin-streptomycin (Invitrogen, cat. 15140122), and 2.5% Matrigel (Corning Inc., Corning, NY, cat. 354248) for the first three passages. […]

[1] = second compound 0.1 µM, first compound 0.00316 µM
[2] = second compound 0.1 µM, first compound 0.01 µM
[3] = second compound 0.1 µM, first compound 0.0316 µM
[4] = second compound 0.1 µM, first compound 0.1 µM
[5] = second compound 0.316 µM, first compound 0.00316 µM
[6] = second compound 0.316 µM, first compound 0.01 µM
[7] = second compound 0.316 µM, first compound 0.0316 µM
[8] = second compound 0.316 µM, first compound 0.1 µM
[9] = second compound 1 µM, first compound 0.00316 µM
[10] = second compound 1 µM, first compound 0.01 µM
[11] = second compound 1 µM, first compound 0.0316 µM
[12] = second compound 1 µM, first compound 0.1 µM
[13] = second compound 3.16 µM, first compound 0.00316 µM
[14] = second compound 3.16 µM, first compound 0.01 µM
[15] = second compound 3.16 µM, first compound 0.0316 µM
[16] = second compound 3.16 µM, first compound 0.1 µM
[17] = second compound 10 µM, first compound 0.00316 µM
[18] = second compound 10 µM, first compound 0.01 µM
[19] = second compound 10 µM, first compound 0.0316 µM
[20] = second compound 10 µM, first compound 0.1 µM
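Note: spheroids exposed to agents for 7 days before viability read.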

CC[C@@]1(O)C(=O)OCc2c1cc1n(c2=O)Cc2cc3c(CN(C)C)c(O)ccc3nc2-1 + NC1CC1c1ccc(-c2cccc(O)c2)cc1
IC50 (second compound 0.1 µM): 0.93 nM | IC50 (second compound 0.316 µM): 1.06 nM | IC50 (second compound 1 µM): 0.805 nM | IC50 (second compound 3.16 µM): 0.791 nM | IC50 (second compound 10 µM): 0.592 nM | viability, T/C (second compound 0.1 µM, first compound 0.000316 µM): 92.2% | viability, T/C (second compound 0.1 µM, first compound 0.001 µM): 47.2% | viability, T/C [1]: 4.42% | viability, T/C [2]: 3.26% | viability, T/C [3]: 2.54% | viability, T/C [4]: 1.68% | viability, T/C (second compound 0.316 µM, first compound 0.000316 µM): 97.2% | viability, T/C (second compound 0.316 µM, first compound 0.001 µM): 52.5% | viability, T/C [5]: 4.34% | viability, T/C [6]: 2.93% | viability, T/C [7]: 1.9% | viability, T/C [8]: 1.67% | viability, T/C (second compound 1 µM, first compound 0.000316 µM): 92.2% | viability, T/C (second compound 1 µM, first compound 0.001 µM): 40.2% | viability, T/C [9]: 5.01% | viability, T/C [10]: 3.22% | viability, T/C [11]: 2.56% | viability, T/C [12]: 1.7% | viability, T/C (second compound 3.16 µM, first compound 0.000316 µM): 91.8% | viability, T/C (second compound 3.16 µM, first compound 0.001 µM): 39.3% | viability, T/C [13]: 4.57% | viability, T/C [14]: 2.89% | viability, T/C [15]: 1.84% | viability, T/C [16]: 1.56% | viability, T/C (second compound 10 µM, first compound 0.000316 µM): 72.7% | viability, T/C (second compound 10 µM, first compound 0.001 µM): 31.1% | viability, T/C [17]: 3.84% | viability, T/C [18]: 3.11% | viability, T/C [19]: 2.42% | viability, T/C [20]: 1.6%

COc1cc(C2c3cc4c(cc3C(OC3OC5COC(C)OC5C(O)C3O)C3COC(=O)C23)OCO4)cc(OC)c1O (stereo not given) + NC1CC1c1ccc(-c2cccc(O)c2)cc1
IC50 (second compound 0.1 µM): 51.7 nM | IC50 (second compound 0.316 µM): 48.4 nM | IC50 (second compound 1 µM): 46.7 nM | IC50 (second compound 3.16 µM): 35.8 nM | IC50 (second compound 10 µM): 19 nM | viability, T/C (second compound 0.1 µM, first compound 0.00949 µM): 115% | viability, T/C (second compound 0.1 µM, first compound 0.03 µM): 78.2% | viability, T/C (second compound 0.1 µM, first compound 0.0949 µM): 18.4% | viability, T/C (second compound 0.1 µM, first compound 0.3 µM): 5.27% | viability, T/C (second compound 0.1 µM, first compound 0.949 µM): 3.81% | viability, T/C (second compound 0.1 µM, first compound 3 µM): 3.41% | viability, T/C (second compound 0.316 µM, first compound 0.00949 µM): 111% | viability, T/C (second compound 0.316 µM, first compound 0.03 µM): 73.5% | viability, T/C (second compound 0.316 µM, first compound 0.0949 µM): 17% | viability, T/C (second compound 0.316 µM, first compound 0.3 µM): 4.71% | viability, T/C (second compound 0.316 µM, first compound 0.949 µM): 3.36% | viability, T/C (second compound 0.316 µM, first compound 3 µM): 2.8% | viability, T/C (second compound 1 µM, first compound 0.00949 µM): 113% | viability, T/C (second compound 1 µM, first compound 0.03 µM): 71% | viability, T/C (second compound 1 µM, first compound 0.0949 µM): 16.5% | viability, T/C (second compound 1 µM, first compound 0.3 µM): 5.06% | viability, T/C (second compound 1 µM, first compound 0.949 µM): 4% | viability, T/C (second compound 1 µM, first compound 3 µM): 3.54% | viability, T/C (second compound 3.16 µM, first compound 0.00949 µM): 100% | viability, T/C (second compound 3.16 µM, first compound 0.03 µM): 56% | viability, T/C (second compound 3.16 µM, first compound 0.0949 µM): 17.2% | viability, T/C (second compound 3.16 µM, first compound 0.3 µM): 3.77% | viability, T/C (second compound 3.16 µM, first compound 0.949 µM): 3.77% | viability, T/C (second compound 3.16 µM, first compound 3 µM): 2.6% | viability, T/C (second compound 10 µM, first compound 0.00949 µM): 68.4% | viability, T/C (second compound 10 µM, first compound 0.03 µM): 37.9% | viability, T/C (second compound 10 µM, first compound 0.0949 µM): 9.86% | viability, T/C (second compound 10 µM, first compound 0.3 µM): 3.55% | viability, T/C (second compound 10 µM, first compound 0.949 µM): 3.7% | viability, T/C (second compound 10 µM, first compound 3 µM): 3.37%

Nc1ncn(C2CC(O)C(CO)O2)c(=O)n1 (stereo not given) + NC1CC1c1ccc(-c2cccc(O)c2)cc1
IC50 (second compound 0.1 µM): 77.9 nM | IC50 (second compound 0.316 µM): 72.5 nM | IC50 (second compound 1 µM): 86.1 nM | IC50 (second compound 3.16 µM): 72.4 nM | IC50 (second compound 10 µM): 46.4 nM | viability, T/C [1]: 116% | viability, T/C [2]: 106% | viability, T/C [3]: 79% | viability, T/C [4]: 41.6% | viability, T/C (second compound 0.1 µM, first compound 0.316 µM): 21.4% | viability, T/C (second compound 0.1 µM, first compound 1 µM): 13.3% | viability, T/C [5]: 106% | viability, T/C [6]: 112% | viability, T/C [7]: 70.5% | viability, T/C [8]: 43.1% | viability, T/C (second compound 0.316 µM, first compound 0.316 µM): 23.4% | viability, T/C (second compound 0.316 µM, first compound 1 µM): 15.9% | viability, T/C [9]: 107% | viability, T/C [10]: 99.4% | viability, T/C [11]: 81.2% | viability, T/C [12]: 44.5% | viability, T/C (second compound 1 µM, first compound 0.316 µM): 22.9% | viability, T/C (second compound 1 µM, first compound 1 µM): 13.4% | viability, T/C [13]: 95.5% | viability, T/C [14]: 103% | viability, T/C [15]: 73.1% | viability, T/C [16]: 40.6% | viability, T/C (second compound 3.16 µM, first compound 0.316 µM): 21.7% | viability, T/C (second compound 3.16 µM, first compound 1 µM): 13.4% | viability, T/C [17]: 72% | viability, T/C [18]: 69.5% | viability, T/C [19]: 57.5% | viability, T/C [20]: 34.6% | viability, T/C (second compound 10 µM, first compound 0.316 µM): 18.3% | viability, T/C (second compound 10 µM, first compound 1 µM): 11.4%
